Laboratory results published in US4465772A, “Method for disinfecting and washing of immobilized lactase” (priority 1980, dated 1984).
Where two headings read alike, the source gives them in different places.

Key:
[1] = test system: Mixture of five strains separated from the putrefied milk; assay: Disinfecting power (number of viable cells); format: cell-based; conditions: initial 10^5-10^6/ml
Description: (1) Disinfecting power (number of viable cells)
Milk obtained commercially was putrefied. Mixture of five strains separated from the putrefied milk was suspended in a 0.2 % bouillon solution (pH: 7.0) so that the number of viable cells attains to 10^5 -10^6 /ml. To this suspension was added an equal amount of an undiluted solution having a concentration of each chemical twice as high as that to be applied. A cotton plug was corked to each container and sampling was carried out after 1 hour and 7 days. The sample was diluted at need and plating on the standard agaragar culture medium was effected to count the number of colonies.
The symbols related to the number of viable cells designate as follows: […]

[2] = target: T1, immobilized lactase (lactase derived from Aspergillus oryzae) (Aspergillus oryzae, UniProt Q2UCU3); assay: Residual enzyme activity of immobilized lactase after immersion in disinfectant solutions; format: biochemical; conditions: for Residual enzyme activity (relative ratio, %) after immersion for 7 days / Residual enzyme activity (relative ratio, %) after immersion for 30 days / remaining activity at 1 % / remaining activity at 0.1 % / remaining activity at 70 % / remaining activity at 0.01 %: 18°-20° C.; for remaining activity at 0.1 %: chemical 0.1%; for remaining activity at 70 %: chemical 70%; for remaining activity at 0.01 %: chemical 0.01%
T1 construct: host or cells: Aspergillus oryzae
T1 sequence (Q2UCU3 19-1005): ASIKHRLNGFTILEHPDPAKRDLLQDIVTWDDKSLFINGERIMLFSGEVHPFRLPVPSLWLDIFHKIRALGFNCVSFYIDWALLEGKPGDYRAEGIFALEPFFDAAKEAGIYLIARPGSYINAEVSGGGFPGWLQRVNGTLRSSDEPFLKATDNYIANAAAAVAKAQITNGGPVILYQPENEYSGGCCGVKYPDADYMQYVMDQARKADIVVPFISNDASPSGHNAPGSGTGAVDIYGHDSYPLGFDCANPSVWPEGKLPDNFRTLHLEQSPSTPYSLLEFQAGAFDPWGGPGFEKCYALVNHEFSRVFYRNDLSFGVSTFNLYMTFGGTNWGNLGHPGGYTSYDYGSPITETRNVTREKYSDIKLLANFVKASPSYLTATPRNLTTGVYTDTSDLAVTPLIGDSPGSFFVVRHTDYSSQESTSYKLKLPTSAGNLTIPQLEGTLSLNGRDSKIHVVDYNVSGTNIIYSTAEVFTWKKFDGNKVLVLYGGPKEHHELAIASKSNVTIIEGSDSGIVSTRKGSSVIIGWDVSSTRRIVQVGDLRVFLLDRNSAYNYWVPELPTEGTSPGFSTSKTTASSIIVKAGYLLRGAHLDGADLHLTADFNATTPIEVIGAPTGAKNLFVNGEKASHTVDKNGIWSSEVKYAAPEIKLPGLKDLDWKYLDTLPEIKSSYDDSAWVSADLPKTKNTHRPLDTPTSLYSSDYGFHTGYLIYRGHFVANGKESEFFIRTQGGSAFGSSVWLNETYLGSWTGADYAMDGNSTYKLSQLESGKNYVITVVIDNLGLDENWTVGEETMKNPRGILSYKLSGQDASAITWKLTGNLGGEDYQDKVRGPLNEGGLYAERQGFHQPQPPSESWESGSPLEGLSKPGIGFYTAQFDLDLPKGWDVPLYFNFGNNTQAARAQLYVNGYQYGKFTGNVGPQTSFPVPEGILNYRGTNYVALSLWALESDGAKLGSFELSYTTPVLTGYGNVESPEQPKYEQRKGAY
Source text: As the immobilized lactase was used one prepared by using a macroporous phenol-formaldehyde type amphoteric ion-exchange resin (particle size: 250-840μ) as the carrier, making the same adsorb the lactase derived from Aspergillus oryzae and carrying out the glutaraldehyde treatment to cause immobilization by covalent linkage [EPC publication No. 26672 (published on Apr. 8, 1981)].
(2) Residual enzyme activity
[…] […] The sample was sufficiently washed with an excessively large amount of water and a 0.05 M acetate buffer solution at pH 4.5 and then the residual activity was measured.
In 30 ml of lactose solution having a concentration of 13.3 (W/V) % prepared by dissolving lactose in a 0.05 M acetate buffer solution of pH 4.5 was immersed 0.2-0.25 ml of an immobilized lactase. The reaction was allowed to proceed at 30° C. under reciprocating shaking (more than 100 rpm with an amplitude larger than 3.5 cm) for 15 minutes. Then the amount of glucose produced was determined with a glucose oxidase-peroxidase-dye system. The amount of enzyme which produces 1μ mol of glucose per minute is defined as one unit (1 ILU). The dry weight of an immobilized lactase is determined as mentioned below. That is, after the termination of the reaction, the immobilized lactase was filtered, dried at 50° C. under reduced pressure for 8 hours or more, placed in a desiccator at room temperature (18°-25° C.) for 1.5 hours or more, the weight thereof was then measured and this value is regarded as the dry weight of the immobilized lactase. The activity of an immobilized lactase is represented by the unit per gram of dry weight (1 ILU/g-IML).

[3] = chemical 1%, relative to 860 ILU/g-IML before immersion
[4] = 168 h, chemical 1%, relative to 860 ILU/g-IML before immersion, read-out: Residual enzyme activity (relative ratio, %) after immersion for 7 days
[5] = 720 h, chemical 1%, relative to 860 ILU/g-IML before immersion, read-out: Residual enzyme activity (relative ratio, %) after immersion for 30 days
[6] = 168 h, relative to 860 ILU/g-IML, read-out: Residual enzyme activity (relative ratio, %) after immersion for 7 days
[7] = 720 h, relative to 860 ILU/g-IML, read-out: Residual enzyme activity (relative ratio, %) after immersion for 30 days
[8] = chemical 10%, relative to 860 ILU/g-IML
[9] = concentration of chemical 0.01%

Compound: OO [35% H2 O2 solution, hydrogen peroxide]
- Number of viable cells after 1 hr. ([1]; concentration of chemical 1%): ⊖
- Number of viable cells after 7 days ([1]; concentration of chemical 1%): ⊖
- Residual enzyme activity (relative ratio, %) after immersion for 7 days [2, 3]: 100%
- Residual enzyme activity (relative ratio, %) after immersion for 30 days [2, 3]: 98%

Compound: CC(=O)O [Acetic acid]
- Number of viable cells after 1 hr. ([1]; concentration of chemical 1%): ⊖
- Number of viable cells after 7 days ([1]; concentration of chemical 1%): ⊖
- remaining activity at 1 % [2, 4]: 102%
- remaining activity at 1 % [2, 5]: 100%

Compound: CC(=O)C1C(=O)C=C(C)OC1=O (stereo not shown) [Dehydroacetic acid]
- Number of viable cells after 1 hr. ([1]; concentration of chemical 0.1%): ⊖
- Number of viable cells after 7 days ([1]; concentration of chemical 0.1%): ⊖
- remaining activity at 0.1 % [2, 6]: 98%
- remaining activity at 0.1 % [2, 7]: 102%

Compound: CCO [Ethyl alcohol]
- Number of viable cells after 1 hr. ([1]; concentration of chemical 70%): ⊖
- Number of viable cells after 7 days ([1]; concentration of chemical 70%): ⊖
- decrease of activity of immobilized lactase on immersion ([2]; 70% solution, immersed for a long period at 18°-20° C.): decrease of activity to some extent
- remaining activity at 70 % [2, 6]: 84%
- remaining activity at 70 % [2, 7]: 67%

Compound: O=CCCCC=O [Glutaraldehyde]
- Number of viable cells after 1 hr. ([1]; concentration of chemical 1%): ⊖
- Number of viable cells after 7 days ([1]; concentration of chemical 1%): ⊖
- remaining activity at 1 % [2, 4]: 102%
- remaining activity at 1 % [2, 5]: 98%

Compound: CC(O)C(=O)O (stereo not shown) [Lactic acid]
- Number of viable cells after 1 hr. ([1]; concentration of chemical 1%): ⊖ to ⊕
- Number of viable cells after 7 days ([1]; concentration of chemical 1%): ⊖
- decrease of activity of immobilized lactase on immersion ([2]; 1% solution, five months at room temperature (18°-25° C.)): completely no decrease of activity
- remaining activity at 1 % [2, 4]: 103%
- remaining activity at 1 % [2, 5]: 101%

Compound: O=C(O)CC(O)C(=O)O (stereo not shown) [Malic acid]
- Number of viable cells after 1 hr. ([1]; concentration of chemical 1%): ⊖
- Number of viable cells after 7 days ([1]; concentration of chemical 1%): ⊖
- remaining activity at 1 % [2, 4]: 101%
- remaining activity at 1 % [2, 5]: 100%

Compound: C/C=C/C=C/C(=O)[O-].[K+] [Potassium sorbate]
- Number of viable cells after 1 hr. ([1]; concentration of chemical 1%): ⊖
- Number of viable cells after 7 days ([1]; concentration of chemical 1%): ⊖
- remaining activity at 1 % [2, 4]: 103%
- remaining activity at 1 % [2, 5]: 101%

Compound: [Cl-].[Na+] [Sodium chloride]
- Number of viable cells after 1 hr. ([1]; concentration of chemical 10%): ⊖ to ⊕
- Number of viable cells after 7 days ([1]; concentration of chemical 10%): ⊖
- Residual enzyme activity (relative ratio, %) after immersion for 7 days [2, 8]: 100%
- Residual enzyme activity (relative ratio, %) after immersion for 30 days [2, 8]: 98%

Compound: OCl [Sodium hypochlorite]
- Number of viable cells after 1 hr. [1, 9]: ⊖
- Number of viable cells after 7 days [1, 9]: ⊖
- decrease of activity of immobilized lactase on immersion ([2]; 0.01% solution, immersed for a long period at 18°-20° C.): decrease of activity to some extent
- remaining activity at 0.01 % [2, 6]: 96%
- remaining activity at 0.01 % [2, 7]: 92%
